What all share (assay): inhibition of tumour cell growth, NCI panel, 48 h
Assay [1] deals with HCT-116 colon.
The subject of assay [2] is IGROV1 ovarian.
Assay [3] concerns NCI-H460 lung.
Assay [4] has as its system OVCAR-3 ovarian.
Assay [5] deals with PC-3 prostate.
The test system of assay [6] is SK-MEL-2 melanoma.
Assay [7] has as its system SK-OV-3 ovarian.
Assay [8] concerns SW-620 colon.
Assay [9] deals with MALME-3M melanoma.
Assay [10] concerns RXF 393 renal.

Each structure is given as a SMILES string.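 Assay format: 96-well plates, 48-hour exposure. GI50 is the concentration that inhibits growth by half. TGI denotes the concentration required for complete inhibition of growth.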 Where a SMILES comes first, the peptide text is derived from it. The star is where a group is joined. Boc = CC(C)(C)OC(=O)*

These results are taken from PubChem BioAssay (NCI).

With `COc1ccc(-c2[nH]c3ccccc3c2-c2ccc(OC)cc2)cc1`, the GI50 was 3.93 µM in [1]; 11.2 µM in assay [2]; 3.65 µM in assay [3]; 2.18 µM in [4]; 4.07 µM in [5]; 8.31 µM in [6]. Moreover, the results for the GI50 in [7] and in assay [8] were 5.85 µM and 4.53 µM, respectively. Further, the TGI in assay [1] was found to be 14.6 µM; in assay [2], 27.5 µM; in [3], 14 µM; in [4], 5.27 µM; in assay [5], 25.3 µM; in [6], 25.6 µM. Moreover, the TGI came out at 26.6 µM in assay [7] and 36.8 µM in assay [8].
For `CC(=O)NC(CCCNC(=O)N(CCCl)N=O)C(=O)NCc1ccccc1` (stereo not drawn), the TGI in [1], in [2], in [9], in assay [3], in assay [4] and in assay [10] was > 100 µM in each case. Moreover, the TGI in assay [6] and in assay [8] was > 100 µM each time.
For `CCC(=O)C12OC3OC(C)(C)OC3C1OC(C)(C)O2` (stereo not drawn), the TGI in assay [1], in assay [2], in [9], in assay [3], in assay [4] and in assay [10] was > 100 µM in each case. The TGI in assay [6], in assay [7] and in assay [8] was > 100 µM each time.
For `COC(=O)C1(C)CCc2c(OC)ccc(OC)c2C1=O` (stereo not drawn), the TGI in [1], in [2], in assay [9], in [4], in [10] and in assay [6] was > 100 µM throughout. Moreover, the TGI in assay [7] and in assay [8] was > 100 µM in each case.
In the case of `Cc1ccc(/C=C/C(=O)C(C)(C)CN2CCCCC2)cc1`, the TGI in assay [1] stood at 22.6 µM; in [2], 35.6 µM; in [9], 29.3 µM; in assay [3], 23.5 µM; in [4], 8.65 µM; in assay [10], 18.7 µM. Also, the TGI was 23.4 µM in assay [6], 26.3 µM in [7] and 7.99 µM in assay [8].
With `O=C1OCC2=C1C(c1ccccc1)c1cc3c(cc1N2)OCO3` (stereo not drawn), the GI50 in assay [1] is 0.0352 µM; in [2], 0.0816 µM; in [9], 14.1 µM; in assay [3], 0.0354 µM; in [4] it was 0.0202 µM; in assay [5], 0.0404 µM. Also, the figures for the GI50 in [6], in assay [7] and in assay [8] were 0.494 µM, 0.0308 µM and 0.037 µM, respectively. The TGI in assay [1] is > 100 µM; in assay [2], 50.2 µM; in assay [9] it was > 100 µM; in [4], 0.0486 µM; in assay [5], > 100 µM; in assay [6] it was 41.7 µM. In addition, the TGI is 1.39 µM in [7] and > 100 µM in assay [8].
With `O=C1NC(=O)C2C(=O)NC(=O)C1C2c1c(Cl)cccc1Cl` (stereo not drawn), the TGI in [1] is > 58.8 µM; in [2], > 100 µM; in assay [9], > 100 µM; in assay [3] it was > 58.2 µM; in [4], > 100 µM; in assay [10], 98.1 µM. The figures for the TGI in [6], in [7] and in assay [8] were > 100 µM, > 100 µM and > 47.1 µM, respectively.
As for `COc1ccc2c(c1)C(=O)C1CC(=O)CCC21` (stereo not drawn), the TGI in assay [1], in [2], in [9], in assay [3], in [4] and in [6] was > 100 µM throughout. The TGI in [7] and in assay [8] was > 100 µM each time.
Turning to `O=C1OC(Cc2ccccc2)(N2CCCC2=O)C1c1ccccc1` (stereo not drawn), the TGI in assay [1], in assay [9], in assay [3], in [4], in [6] and in [7] was > 100 µM in each case. For the same compound, in [8], the TGI was > 100 µM.
As for `CC(C)(C)OC(=O)NC(Cc1ccc(O)cc1)C(=O)N1CCCC1C(=O)O` (stereo not drawn) (Boc-Tyr-Pro-OH; configuration not given here), the TGI in assay [1], in assay [2], in [9], in assay [3], in [4] and in assay [10] was > 100 µM in each case. Besides, the TGI in assay [6], in [7] and in assay [8] was > 100 µM in each case.
As to `N#CC(=C1C=CC(=NO)C=C1)c1ccc(Cl)cc1`, the TGI in [1] is 21.6 µM; in assay [2] it was 56.1 µM; in assay [9], 60.7 µM; in [3], 56.4 µM; in [4] it was 13.2 µM; in assay [10] it was 36.5 µM. Moreover, the TGI was 20.2 µM in [6], 48.9 µM in assay [7] and 24 µM in [8].
Take `Cc1ccc(-c2nnc(-c3nn(-c4ccccc4)c4nc5ccccc5nc34)o2)cc1`: the TGI in [1] was 25 µM; in assay [2] it was 41.7 µM; in assay [3], 41.6 µM; in assay [4] it was 28.7 µM; in [10] it was 20.5 µM; in assay [6], 39 µM. The figures for the TGI in assay [7] and in [8] were 24.4 µM and > 100 µM, respectively.
Consider `CC/C=C\C/C=C\C/C=C\CCCCCCCC(=O)OCC(O)CO` (stereo not drawn), for which the TGI in assay [1] is > 68.3 µM; in assay [2] it was > 100 µM; in [9], > 100 µM; in assay [3], > 100 µM; in assay [4], > 74.5 µM; in [10], > 100 µM. Moreover, the TGI was > 100 µM in assay [6], > 100 µM in assay [7] and > 96.4 µM in assay [8].
Consider `O=C(NC1CCCCC1)NS(=O)(=O)c1ccc2c(c1)CCC2`, for which the TGI in [2], in assay [9], in assay [4], in assay [10], in [6] and in assay [7] was > 100 µM each time. Further, the TGI in [8] was > 100 µM.
